Laboratory results published in US6867185B2 (Bristol-Myers Squibb Company, priority 2001, dated 2005).

Key:
[1] = target: T1, HCV NS3/4A protease complex, BMS strain (genotype 1a) (Hepatitis C virus genotype 1a, UniProt P27958, C1454S/C1711G); test: Recombinant HCV NS3/4A protease complex FRET peptide assay (BMS strain); format: biochemical; settings: IC50, HCV NS3/4A protease FRET assay in vitro; IC50 ranges
T1 construct: recombinant HCV NS3/4A protease complex (amino'acids 1027 to 1711); inferred from the pET21b vector and Ni-NTA purification; made in house; host or cells: Escherichia coli BL21 (DE3), pET21b
Source text: The purpose of this in vitro assay was to measure the inhibition of HCV NS3 protease complexes, derived from the BMS, H77C or J4L6S strains, as described below, by compounds of the present invention. This assay provides an indication of how effective compounds of the present invention would be in inhibiting HCV proteolytic activity.
Serum from an HCV-infected patient was obtained from Dr. T. Wright, San Francisco Hospital. An engineered full-length cDNA (compliment deoxyribonucleic acid) template of the HCV genome (BMS strain) was constructed from DNA fragments obtained by reverse transcription-PCR (RT-PCR) of serum RNA (ribonucleic acid) and using primers selected on the basis of homology between other genotype 1a strains. From the determination of the entire genome sequence, a genotype 1a was assigned to the HCV isolate according to the classification of Simmonds et al. (See P Simmonds, K A Rose, S Graham, S W Chan, F McOmish, B C Dow, E A Follett, P L Yap and H Marsden, J. Clin. Microbiol., 31 (6), 1493-1503 (1993)). […] The infectious clones, H77C (1a genotype) and J4L6S (1b genotype) were obtained from R. Purcell (N1H) and the sequences are published in Genbank (AAB67036, see Yanagi, M., Purcell, R. H., Emerson, S. U. and Bukh, J. Proc. Natl. Acad. Sci. U.S.A. 94 (16), 8738-8743 (1997); AF054247, see Yanagi, M., St Claire, M., Shapiro, M., Emerson, S. U., Purcell, R. H. and Bukh, J, Virology 244 (1), 161-172. (1998)).
The BMS, H77C and J4L6S strains were used for production of recombinant NS3/4A protease complexes. DNA encoding the recombinant HCV NS3/4A protease complex (amino'acids 1027 to 1711) for these strains were manipulated as described by P. Gallinari et al. (see Gallinari P, Paolini C, Brennan D, Nardi C, Steinkuhler C, De Francesco R. Biochemistry. 38 (17):5620-32, (1999)). Briefly, a three-lysine solubilizing tail was added at the 3′-end of the NS4A coding region. The cysteine in the P1 position of the NS4A-NS4B cleavage site (amino acid 1711) was changed to a glycine to avoid the proteolytic cleavage of the lysine tag. Furthermore, a cysteine to serine mutation was introduced by PCR at amino acid position 1454 to prevent the autolytic cleavage in the NS3 helicase domain. The variant DNA fragment was cloned in the pET21b bacterial expression vector (Novagen)and the NS3/4A complex was expressed in Escherichia. coli strain BL21 (DE3) (Invitrogen) following the protocol described by P. Gallinari et al. (see Gallinari P, Brennan D, Nardi C, Brunetti M, Tomei L, Steinkuhler C, De Francesco R., J. Virol. 72 (8):6758-69 (1998)) with modifications. Briefly, NS3/4A expression was induced with 0.5 mM Isopropyl β-D-1-thiogalactopyranoside (IPTG) for 22 hr at 20° C. A typical fermentation (10L) yielded approximately 80 g of wet cell paste. The cells were resuspended in lysis buffer (10 mL/g) consisting of 25 mM N-(2-Hydroxyethyl)Piperazine-N′-(2-Ethane Sulfonic acid) (HEPES), pH 7.5, 20% glycerol, 500 mM Sodium Chloride (NaCl), 0.5% Triton-X100, 1 ug/ml lysozyme, 5 mM Magnesium Chloride (MgCl2), 1 ug/ml Dnasel, 5 mM β-Mercaptoethanol (OME), Protease inhibitor-Ethylenediamine Tetraacetic acid (EDTA) free (Roche), homogenized and incubated for 20 mins at 4° C. The homogenate was sonicated and clarified by ultra-centrifugation at 235000 g for 1 hr at 4° C. Imidazole was added to the supernatant to a final concentration of 15 mM and the pH adjusted to 8.0. The crude protein extract was loaded on a Nickel-Nitrilotriacetic acid (Ni-NTA) column pre-equilibrated with buffer B (25 mM HEPES, pH 8.0, 20% glycerol, 500 mM NaCl, 0.5% Triton-X100, 15 mM imidazole, 5 mM βME). The sample was loaded at a flow rate of 1 mL/min. The column was washed with 15 column volumes of buffer C (same as buffer B except with 0.2% Triton-X100). The protein was eluted with 5 column volumes of buffer D (same as buffer C except with 200 mM Imidazole). […]

[2] = test system: HCV replicon in Huh7 cells; test: HCV replicon cell-based assay (replicon FRET assay); parameters: species or system HCV strain 1B; settings: Hepatitis C virus, Huh-7, HCV replicon cell assay; EC50 ranges
Source text: An HCV replicon whole cell system was established as described by Lohmann V, Korner F, Koch J, Herian U, Theilmann L, Bartenschlager R., Science 285 (5424):110-3 (1999). This system enabled us to evaluate the effects of our HCV Protease compounds on HCV RNA replication. Briefly, using the HCV strain 1B sequence described in the Lohmann paper (Assession number:AJ238799), an HCV cDNA was generated encoding the 5′ internal ribosome entry site (IRES), the neomycin resistance gene, the EMCV (encephalomyocarditis viurs)-IRES and the HCV nonstructural proteins, NS3-NS5B, and 3′ non-translated region (NTR). In vitro transcripts of the cDNA were transfected into the human hepatoma cell line, Huh7. […] Resulting cell lines were characterized for positive and negative strand RNA production and protein production over time.
Huh7 cells, constitutively expressing the HCV replicon, were grown in Dulbecco's Modified Eagle Media (DMEM) containing 10% Fetal calf serum (FCS) and 1 mg/ml G418 (Gibco-BRL). Cells were seeded the night before (1.5×10^4 cells/well) in 96-well tissue-culture sterile plates. Compound and no compound controls were prepared in DMEM containing 4% FCS, 1:100 Penicillin/Streptomysin, 1:100 L-glutamine and 5% DMSO in the dilution plate (0.5% DMSO final concentration in the assay). Compound/DMSO mixes were added to the cells and incubated for 4 days at 37° C. After 4 days, plates were rinsed thoroughly with Phosphate-Buffered Saline (PBS) (3 times 150 μl). The cells were lysed with 25 μl of a lysis assay reagent containing the FRET peptide (RET S1, as described for the in vitro enzyme assay). The lysis assay reagent was made from 5× cell Luciferase cell culture lysis reagent(Promega #E153A) diluted to 1× with distilled water, NaCl added to 150 mM final, the FRET peptide diluted to 10 μM final from a 2 mM stock in 100% DMSO. The plate was then placed into the Cytofluor 4000 instrument which had been set to 340 nm excitation/490 emission, automatic mode for 21 cycles and the plate read in a kinetic mode. EC50 determinations were carried out as described for the IC50 determinations.

T1 sequence (P27958 1027-1711 C1454S/C1711G, one chain of several): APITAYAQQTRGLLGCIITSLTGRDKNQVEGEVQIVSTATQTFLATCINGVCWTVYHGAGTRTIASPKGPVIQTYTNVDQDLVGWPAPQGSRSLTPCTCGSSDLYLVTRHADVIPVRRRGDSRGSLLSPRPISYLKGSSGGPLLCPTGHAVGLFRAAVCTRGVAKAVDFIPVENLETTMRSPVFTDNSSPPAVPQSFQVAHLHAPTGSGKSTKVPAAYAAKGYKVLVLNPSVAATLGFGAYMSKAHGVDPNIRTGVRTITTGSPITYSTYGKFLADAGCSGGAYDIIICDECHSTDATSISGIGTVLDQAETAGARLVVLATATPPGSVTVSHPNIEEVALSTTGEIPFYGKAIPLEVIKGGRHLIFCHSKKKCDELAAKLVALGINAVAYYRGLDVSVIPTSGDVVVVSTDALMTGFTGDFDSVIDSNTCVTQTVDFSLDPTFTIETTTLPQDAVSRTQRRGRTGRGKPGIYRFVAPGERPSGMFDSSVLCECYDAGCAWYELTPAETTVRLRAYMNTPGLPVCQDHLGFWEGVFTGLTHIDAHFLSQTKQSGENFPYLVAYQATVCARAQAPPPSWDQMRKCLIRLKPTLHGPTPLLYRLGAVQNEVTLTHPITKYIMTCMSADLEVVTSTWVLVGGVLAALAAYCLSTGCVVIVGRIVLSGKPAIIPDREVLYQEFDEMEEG

COc1ccc2c(O[C@@H]3C[C@H]4C(=O)N[C@]5(C(=O)NS(=O)(=O)C6CC6)C[C@H]5CCCCCCC[C@H](NC(=O)OCC(C)(C)C)C(=O)N4C3)cc(-c3ccccc3)nc2c1 [Compound 22, (1S,4R,6R,14S,18R)-[4-Cyclopropanesulfonylaminocarbonyl-18-(7-methoxy-2-phenylquinolin-4-yloxy)-2,15-dioxo-3,16-diazatricyclo[14.3.0.0^4,6]-nonadec-14-yl]carbamic acid 2,2-dimethylpropyl ester]
IC50 [1]: < 50 nM
EC50 [2]: < 50 nM

COc1ccc2c(O[C@@H]3C[C@H]4C(=O)N[C@]5(C(=O)NS(=O)(=O)C6CC6)CC5CCCCCCC[C@H](NC(=O)OC5CCOCC5)C(=O)N4C3)cc(-c3ccccc3)nc2c1 (stereo partly drawn) [Compound 23, (1S,4R,6R,14S,18R)-[4-Cyclopropanesulfonyl-aminocarbonyl-18-(7-methoxy-2-phenylquinolin-4-yloxy)-2,15-dioxo-3,16-diazatricyclo[14.3.0.0^4,6]nonadec-14-yl]carbamic acid tetrahydro[4H]pyran-4-yl ester]
IC50 [1]: < 50 nM
EC50 [2]: < 50 nM

COc1ccc2c(O[C@@H]3C[C@H]4C(=O)N[C@]5(C(=O)NS(=O)(=O)C6CC6)CC5CCCCCC[C@H](NC(=O)CC5CC5)C(=O)N4C3)cc(-c3ccccc3)nc2c1 (stereo partly drawn) [Compound 24, (1S,4R,6R,14S,17R)-N-[4-Cyclopropanesulfonylaminocarbonyl-17-(7-methoxy-2-phenylquinolin-4-yloxy)-2,14-dioxo-3,15-diazatricyclo[13.3.0.0^4,6]-octadec-13-yl]-2-cyclopropylacetamide]
IC50 [1]: < 50 nM
EC50 [2]: < 50 nM

COc1ccc2c(O[C@@H]3C[C@H]4C(=O)N[C@]5(C(=O)NS(=O)(=O)C6CC6)CC5CCCCCC[C@H](NC(=O)OC5CCCC5)C(=O)N4C3)cc(-c3ccccc3)nc2c1 (stereo partly drawn) [Compound 25, (1S,4R,6R,14S,17R)-[4-Cyclopropanesulfonylaminocarbonyl-17-(7-methoxy-2-phenylquinolin-4-yloxy)-2,14-dioxo-3,15-diazatricyclo[13.3.0.0^4,6]octa-dec-13-yl]carbamic acid cyclopentyl ester]
IC50 [1]: < 50 nM
EC50 [2]: < 50 nM

COc1ccc2c(O[C@@H]3C[C@H]4C(=O)N[C@]5(C(=O)NS(=O)(=O)C6CC6)CC5CCCCCC[C@H](NC(=O)O[C@H]5CCOC5)C(=O)N4C3)cc(-c3ccccc3)nc2c1 (stereo partly drawn) [Compound 26, (1S,4R,6R,14S,17R,3′S)-[4-Cyclopropanesulfonyl-aminocarbonyl-17-(7-methoxy-2-phenylquinolin-4-yloxy)-2,14-dioxo-3,15-diazatricyclo[13.3.0.0^4,6]-octadec-13-yl]-carbamic acid tetrahydrofuran-3′-yl ester]
IC50 [1]: < 50 nM
EC50 [2]: < 50 nM

COc1ccc2c(O[C@@H]3C[C@H]4C(=O)N[C@]5(C(=O)NS(=O)(=O)C6CC6)C[C@H]5/C=C\CCCCC[C@H](NC(=O)OC(C)(C)C)C(=O)N4C3)cc(-c3csc(C(C)C)n3)nc2c1 [Compound 27]
IC50 [1]: < 50 nM
EC50 [2]: < 50 nM

COc1ccc2c(O[C@@H]3C[C@H]4C(=O)N[C@]5(C(=O)NS(=O)(=O)C6CC6)C[C@H]5/C=C\CCCCC[C@H](NC(=O)OC(C)(C)C)C(=O)N4C3)cc(-c3csc(NC(C)=O)n3)nc2c1 [Compound 28, (1S,4R,6S,14S,18R)-7-cis-{18-[2-(2-Acetylaminothiazol-4-yl)-7-methoxyquinolin-4-yloxy]-4-cyclopropanesulfonylaminocarbonyl-2,15-dioxo-3,16-diazatricyclo-[14.3.0.0^4,6]nonadec-7-en-14-yl}carbamic acid tert-butyl ester]
IC50 [1]: < 50 nM
EC50 [2]: < 50 nM

CC(C)(C)OC(=O)N[C@H]1CCCCC/C=C\[C@@H]2C[C@@]2(C(=O)NS(=O)(=O)C2CC2)NC(=O)[C@@H]2C[C@@H](Oc3ccnc4ccccc34)CN2C1=O [Compound 29, (1S,4R,6S,14S,18R)-7-cis-[4-Cyclopropanesulfonylaminocarbonyl-2,15-dioxo-18-(quinolin-4-yloxy)-3,16-diazatricyclo[14.3.0.0^4,6]nonadec-7-en-14-yl]carbamic acid tert-butyl ester]
IC50 [1]: < 50 nM
EC50 [2]: < 50 nM

CC(C)(C)OC(=O)N[C@H]1CCCCC/C=C\[C@@H]2C[C@@]2(C(=O)NS(C)(=O)=O)NC(=O)[C@@H]2C[C@@H](Oc3ccnc4ccccc34)CN2C1=O [Compound 30, (1S,4R,6S,14S,18R)-7-cis-[4-Methanesulfonylaminocarbonyl-2,15-dioxo-18-(quinolin-4-yloxy)-3,16-diazatricyclo[14.3.0.0^4,6]nonadec-7-en-14-yl]-carbamic acid tert-butyl ester]
IC50 [1]: < 50 nM
EC50 [2]: < 5000 nM

COc1ccc2c(O[C@@H]3C[C@H]4C(=O)N[C@]5(C(=O)NS(=O)(=O)C6CC6)CC5/C=C\CCCSC[C@H](NC(=O)OC(C)(C)C)C(=O)N4C3)cc(-c3ccccc3)nc2c1 (stereo partly drawn) [Compound 31, (1S,4R,6S,14S,18R)-7-cis-[4-Cyclopropanesulfonylaminocarbonyl-18-(7-methoxy-2-phenyl-quinolin-4-yloxy)-2,15-dioxo-12-thia-3,16-diazatricyclo[14.3.0.0^4,6]nonadec-7-en-14-yl]-carbamic acid tert-butyl ester]
IC50 [1]: < 50 nM
EC50 [2]: < 50 nM
